As a reminder, the IC50 is the concentration needed to halve the response being measured. Usually Ki stands for a measure of affinity in units of concentration, obtained from inhibition or displacement.

The target of this assay is T1, GST-tagged human RIPK1 (Homo sapiens, UniProt Q13546).
T1 construct: purchased SignalChem R07–11G-10
T1 sequence (Q13546 1-327 limits assumed): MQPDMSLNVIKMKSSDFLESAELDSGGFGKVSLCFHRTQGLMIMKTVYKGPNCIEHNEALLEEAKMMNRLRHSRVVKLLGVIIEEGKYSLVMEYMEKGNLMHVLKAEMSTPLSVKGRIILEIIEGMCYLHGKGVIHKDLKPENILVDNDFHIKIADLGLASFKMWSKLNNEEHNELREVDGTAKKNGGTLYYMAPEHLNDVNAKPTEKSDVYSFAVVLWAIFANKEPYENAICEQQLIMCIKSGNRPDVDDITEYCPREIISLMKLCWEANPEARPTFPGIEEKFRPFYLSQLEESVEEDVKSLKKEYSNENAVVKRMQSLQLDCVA
Description: TR-FRET biochemical binding assay for RIPK1. The protocol:
Figure 2 LD4172, a RIPK1 PROTAC, induces potent and highly specific degradation of RIPK1 in a panel of cell lines. A, Chemical structures of RIPK1 PROTAC, LD4172, and its negative control, LD4172-NC. […] B, Quantification of RIPK1 levels in both Jurkat and B16F10 cells treated with LD4172 at indicated concentrations for 24 h, followed by Western blotting. C, DC50 and Dmax of LD4172 in various human and mouse cell lines. DC50, the drug concentration causing 50% protein degradation; Dmax, the maximum level of protein degradation. D, RIPK1 degradation kinetics induced by LD4172 treatment (1 μM) and resynthesis kinetics upon washout of LD4172 in both Jurkat and B16F10 cells. […] G, Time-resolved fluorescence resonance energy transfer (TR-FRET) based biochemical binding assay for RIPK1. […] In total, ~10,000 proteins were quantified in the proteomics experiment. […]
A time-resolved fluorescence resonance energy transfer (TR-FRET) assay was performed to evaluate the binding of the indicated compounds and RIPK1 by competition with a BODIPY-FL labeled RIPK1 tracer (Supplementary Information, T2I-488). […] The assay mixtures were incubated at room temperature in the dark for 120 min, and the signals were collected using a BioTek Synergy H1 microplate reader to measure the fluorescence emission ratio (I520 nm/I490 nm) of each well using a 340-nm excitation filter, a 100-μs delay, and a 200-μs integration time. […]
On the technique in general: TR-FRET usually uses a lanthanide donor and a delayed reading to cut background.

Regarding `Cc1ncsc1-c1ccc([C@H](C)NC(=O)[C@@H]2C[C@@H](O)CN2C(=O)[C@@H](NC(=O)CCCCCCCCCCC(=O)NCCCn2cc(-c3ccc4c(c3)CCN4C(=O)Cc3cccc(OC(F)(F)F)c3)c3c(N)ncnc32)C(C)(C)C)cc1` [LD4172], the IC50 (2 hours incubation, n=3, read-out: IC50, Fig. 2G) was found to be 9.6 nM. In addition, the Ki (recombinant human RIPK1 protein) was found to be 4.8 nM.

Source of the values: PMC11042424, “Development of a First-in-Class RIPK1 Degrader to Enhance Antitumor Immunity” (Research Square, 2024).
